Source: paper PMC6024615, “Effect of Biliary Drainage on the Toxicity and Toxicokinetics of Amanita exitialis in Beagles” (Toxins, 2018)
*1 amine or outer side, *2 acyl side, *3 side chain or, on linkers, in order; H or OH if unused. Where a SMILES comes first, the peptide text is derived from it. Bridges are numbered along the chain shown (N, C = ends). [ ]: non-standard residue; d: D form. Trp(2-yl) = O=C([C@H](Cc1c([*:3])[nH]c2ccccc12)N[*:1])[*:2]; Leu(4R-OH,5-OH) = C[C@](O)(CO)C[C@H](N)C(=O)O; dAsp(3S-OH) = N[C@@H](C(=O)O)[C@H](O)C(=O)O; cisHyp = O=C(O)[C@@H]1C[C@H](O)CN1

Experiments:
[1] = Peptide toxins in the urine of beagles with biliary drainage; format: in vivo, beagle dogs; conditions: for Total (accumulated) amount excreted in urine / percentage of total urine excretion, Total: 0–4 days
Protocol: (§1) The study was approved by National Institute of Occupational Health and Poison Control review board for animal experiments. Twenty-four male beagles (age, 8–10 months; weight, 10 ± 1 kg) were obtained from Beijing Institute of Xieerxin Biology Resource (Beijing, China). They were randomly divided into four groups of six animals each: control, biliary drainage, and 20 and 60 mg/kg with biliary drainage groups. The biliary drainage operation was conducted in all groups barring the control group. The dogs were dressed in homemade underwear, coats, and Elizabeth circles for a week to ensure pre-experimental acclimatization (Figure S8a–c). After determining the baseline values for biochemical indicators, the dogs were fasted for 24 h but received water ad libitum. They were anesthetized by intravenous administration of pentobarbital sodium (3%, 1 mL/kg) during the surgery. A temperature of 38–39 °C was maintained with a warming mat. After skin preservation and sterilization, the abdominal cavity was opened through the central abdomen. The abdomen was explored and blunt dissection of the common bile duct was performed (Figure S8d). The common bile duct and its branches were ligated from the intestinal side. A 7.0-Fr drainage catheter (COOK, Bloomington, IN, USA) was percutaneously inserted into the gallbladder, and a medical drainage bag was connected to the drainage catheter coming out of the abdominal cavity. Each opened layer, including the peritoneum, abdominal wall muscle, and skin, was closed with suture. The operative incision was protected with sterile gauze and a bandage, and the dogs were dressed in homemade underwear, coats, and Elizabeth circles. The drainage bag was placed in the pocket of the coat (Figure S8e). After the anesthetic wore off, the dogs were placed in cages, and food and water were provided ad libitum. The operative incision was sterilized with iodophor twice a day until stitches were removed six days after surgery. The drainage bag was replaced every day. On the eighth day after surgery, the 20 and 60 mg/kg with biliary drainage groups were orally administered a lyophilized powder of Amanita exitialis in starch capsules. In control and bile drainage group, the beagle dogs were fed with empty capsules. Immediately after dosing, the animals were placed in their cages, and food and water were provided ad libitum. Dogs were sacrificed with an overdose of sodium pentobarbital at the end of the experiment. All procedures were performed according to the ethical standards of the National Institutes of Health Guide for Animal Welfare and approved by the Institutional Animal Care and Use Committee (EAWE-2017-005).
(§2) Peptide toxins in blood and urine samples were analyzed as described previously. Bile samples from Days 0–1, Days 1–2, Days 2–3, and Days 3–4 were collected and stored in medical drainage bags and the bile volume was recorded. Plasma and urine samples were stored at 2–8 °C until analysis for peptide toxins.
(§3) UPLC and MS/MS parameters were as described in our previous study. The limit of detection and limit of quantitation of each toxin in the bile were 0.03 mg/kg and 0.5 mg/kg, respectively.

[2] = Peptide toxins in the bile of beagles with biliary drainage; format: in vivo, beagle dogs; conditions: for Accumulated amounts excreted in bile / percentage of total bile excretion, Accumulated amounts: 0–4 days
Protocol: as §1, §2
α-Amanitin, β-amanitin, γ-amanitin, and phallacidin were used as the standard reference materials. Aliquots (0.2 mL) of bile samples were transferred into 2-mL polypropylene centrifuge tubes in duplicates. Next, 1 mL of acetonitrile was added to each tube. After vortex-mixing for 1 min, each sample was sonicated for 30 min and centrifuged at 11,200× g for 10 min at 4 °C. The supernatants were loaded on solid-phase extraction columns (Oasis PRiME HLB, 60 mg, 3 cc). The columns were then washed with 3 mL of methanol/ultrapure water (v/v: 5/95). The eluent was evaporated in a stream of nitrogen at room temperature. The dry residue was dissolved in 0.2 mL of ultrapure water and analyzed by UPLC-ESI-MS/MS.
as §3

[3] = 0-1 d, 20 mg/kg with biliary drainage group
[4] = 0-1 d, 60 mg/kg with biliary drainage group
[5] = 0–1 days, 20 mg/kg with biliary drainage group
[6] = 0–1 days, 60 mg/kg with biliary drainage group
[7] = 20 mg/kg with biliary drainage group
[8] = 60 mg/kg with biliary drainage group
[9] = 1-2 d, 20 mg/kg with biliary drainage group
[10] = 1-2 d, 60 mg/kg with biliary drainage group
[11] = 1–2 days, 20 mg/kg with biliary drainage group
[12] = 1–2 days, 60 mg/kg with biliary drainage group
[13] = 2-3 d, 20 mg/kg with biliary drainage group
[14] = 2-3 d, 60 mg/kg with biliary drainage group
[15] = 2–3 days, 20 mg/kg with biliary drainage group
[16] = 2–3 days, 60 mg/kg with biliary drainage group
[17] = 3-4d, 20 mg/kg with biliary drainage group
[18] = 3-4d, 60 mg/kg with biliary drainage group
[19] = 3–4 days, 20 mg/kg with biliary drainage group
[20] = 3–4 days, 60 mg/kg with biliary drainage group

Structure (SMILES): CC(C)[C@@H]1NC(=O)[C@H](C[C@@](C)(O)CO)NC(=O)[C@@H]2Cc3c([nH]c4ccccc34)SC[C@H](NC(=O)[C@@H]([C@H](O)C(=O)O)NC1=O)C(=O)N1C[C@@H](O)C[C@H]1C(=O)N[C@@H](C)C(=O)N2 [phallacidin] (cyclo(A[Trp(2-yl)][Leu(4R-OH,5-OH)]V[dAsp(3S-OH)]C[cisHyp]); thioether 2-6)
- detection rate of peptide toxins in urine [1, 3]: 100%
- detection rate of peptide toxins in urine [1, 4]: 100%
- daily amount excreted in urine [1, 5]: 0.0012 mg
- percentage of total urine excretion excreted daily ([1]; 0–1 days, 20 mg/kg with biliary drainage group, 20 mg/kg): more than 90%
- percentage of total urine excretion excreted daily ([1]; 0–1 days, 20 mg/kg with biliary drainage group, listed as Phallacidin, 20 mg/kg): 92.2%
- daily amount excreted in urine [1, 6]: 0.0017 mg
- percentage of total urine excretion excreted daily [1, 6]: 70.5%
- Total (accumulated) amount excreted in urine [1, 7]: 0.0014 mg
- percentage of total urine excretion, Total [1, 7]: 100%
- Total (accumulated) amount excreted in urine [1, 8]: 0.0025 mg
- percentage of total urine excretion, Total [1, 8]: 100%
- time within which toxin was detected in urine [1, 7]: two
- time within which toxin was detected in urine [1, 8]: three
- detection rate of peptide toxins in urine [1, 9]: 83%
- detection rate of peptide toxins in urine [1, 10]: 100%
- daily amount excreted in urine [1, 11]: 0.0001 mg
- percentage of total urine excretion excreted daily [1, 11]: 7.8%
- daily amount excreted in urine [1, 12]: 0.0005 mg
- percentage of total urine excretion excreted daily [1, 12]: 22.1%
- detection rate of peptide toxins in urine [1, 13]: 0%
- toxin content in urine ([1]; 2-3d, 20 mg/kg with biliary drainage group, mean ± SD): 0 µg/L
- detection rate of peptide toxins in urine [1, 14]: 50%
- daily amount excreted in urine [1, 15]: 0(0%) mg
- percentage of total urine excretion excreted daily [1, 15]: 0(0%)
- daily amount excreted in urine [1, 16]: 0.0002 mg
- percentage of total urine excretion excreted daily [1, 16]: 7.5%
- detection rate of peptide toxins in urine [1, 17]: 0%
- toxin content in urine [1, 17]: 0 µg/L
- detection rate of peptide toxins in urine [1, 18]: 0%
- toxin content in urine [1, 18]: 0 µg/L
- daily amount excreted in urine [1, 19]: 0(0%) mg
- percentage of total urine excretion excreted daily [1, 19]: 0(0%)
- daily amount excreted in urine [1, 20]: 0(0%) mg
- percentage of total urine excretion excreted daily [1, 20]: 0(0%)
- share of total urine excretion in the 0–2-day urine ([1]; beagles with biliary drainage, both dose groups): more than 90%
- detection rate of peptide toxins in bile [2, 3]: 83%
- toxin concentration in bile ([2]; 0-1d, 20 mg/kg with biliary drainage group, mean ± SD): 0 µg/L
- detection rate of peptide toxins in bile [2, 4]: 83%
- daily amount excreted in bile [2, 5]: 0.00005 mg
- percentage of total bile excretion excreted daily [2, 5]: 100%
- daily amount excreted in bile [2, 6]: 0.0002 mg
- percentage of total bile excretion excreted daily [2, 6]: 81.7%
- Accumulated amounts excreted in bile [2, 7]: 0.00005 mg
- percentage of total bile excretion, Accumulated amounts [2, 7]: 100%
- percentage of total bile excretion, Accumulated amounts [2, 8]: 100%
- Accumulated amounts excreted in bile ([2]; 60 mg/kg with biliary drainage group, 60 mg/kg): 0.00024 mg
- ratio of peptide toxins in bile to excretion in urine and bile ([2]; 20 mg/kg with biliary drainage group, mean ± SD): less than 10%
- ratio of peptide toxins in bile to excretion in urine and bile ([2]; 20 mg/kg with biliary drainage group, mean ± SD, listed as Phallacidin): 4.8 ± 5.7%
- ratio of peptide toxins in bile to excretion in urine and bile ([2]; 60 mg/kg with biliary drainage group, mean ± SD): less than 20%
- ratio of peptide toxins in bile to excretion in urine and bile ([2]; 60 mg/kg with biliary drainage group, mean ± SD, listed as Phallacidin): 9.4 ± 6.4%
- detection rate of peptide toxins in bile [2, 9]: 0%
- toxin concentration in bile [2, 9]: 0 µg/L
- detection rate of peptide toxins in bile [2, 10]: 75%
- daily amount excreted in bile [2, 11]: 0(0%) mg
- percentage of total bile excretion excreted daily [2, 11]: 0(0%)
- daily amount excreted in bile [2, 12]: 0.00004 mg
- percentage of total bile excretion excreted daily [2, 12]: 18.3%
- detection rate of peptide toxins in bile [2, 13]: 0%
- toxin concentration in bile [2, 13]: 0 µg/L
- detection rate of peptide toxins in bile [2, 14]: 0%
- toxin concentration in bile [2, 14]: 0 µg/L
- daily amount excreted in bile [2, 15]: 0(0%) mg
- percentage of total bile excretion excreted daily [2, 15]: 0(0%)
- daily amount excreted in bile [2, 16]: 0(0%) mg
- percentage of total bile excretion excreted daily [2, 16]: 0(0%)
- detection rate of peptide toxins in bile [2, 17]: 0%
- toxin concentration in bile [2, 17]: 0 µg/L
- detection rate of peptide toxins in bile [2, 18]: 0%
- toxin concentration in bile [2, 18]: 0 µg/L
- daily amount excreted in bile [2, 19]: 0(0%) mg
- percentage of total bile excretion excreted daily [2, 19]: 0(0%)
- daily amount excreted in bile [2, 20]: 0(0%) mg
- percentage of total bile excretion excreted daily [2, 20]: 0(0%)
